Measurements published in patent US11173151B2, “Substituted triazole derivatives and uses thereof” (BAYER AKTIENGESELLSCHAFT, priority 2017, dated 2021).
pIC50: −log10 of the molar value. Read-outs that look alike come from different tables or passages of the source.

What was measured:
[1] = molecular target: T1, human V1a receptor (Homo sapiens, UniProt P37288); experiment: Cellular in vitro assay for determining vasopressin receptor activity, V1a receptor cell line (CHO, aequorin luminescence); assay type: cell-based; conditions: for pIC50: CHO cell line transfected with human V1a receptor, [Arg]-vasopressin at EC50 concentration, read-out: IC50 hV1a; for ratio IC50 hV2/hV1a: selectivity ratio IC50 hV2 / IC50 hV1a
T1 construct: expressed in transfected cells; host or cells: CHO K1 (ATCC), also stably transfected with a modified aequorin
T1 sequence (P37288 whole entry): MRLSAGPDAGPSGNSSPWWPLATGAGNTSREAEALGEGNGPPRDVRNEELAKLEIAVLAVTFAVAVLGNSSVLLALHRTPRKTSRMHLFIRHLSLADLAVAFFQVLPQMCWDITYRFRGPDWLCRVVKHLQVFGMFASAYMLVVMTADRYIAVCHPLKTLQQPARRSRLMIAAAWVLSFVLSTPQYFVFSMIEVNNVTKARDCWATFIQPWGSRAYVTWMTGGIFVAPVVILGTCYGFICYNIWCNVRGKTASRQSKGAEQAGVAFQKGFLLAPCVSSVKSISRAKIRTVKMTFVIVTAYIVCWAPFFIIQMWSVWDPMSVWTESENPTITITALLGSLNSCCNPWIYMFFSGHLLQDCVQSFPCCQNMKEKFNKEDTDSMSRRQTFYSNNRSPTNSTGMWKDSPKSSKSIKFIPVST
Summary of the method: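 Luminescence from reconstituted aequorin, reporting intracellular calcium release, was measured immediately after adding [Arg]-vasopressin at EC50 concentration to CHO K1 cells pretreated 10 minutes with graded compound concentrations. Inhibition gave IC50 values.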

[2] = molecular target: T2, human V2 receptor (Homo sapiens, UniProt P30518); experiment: Cellular in vitro assay for determining vasopressin receptor activity, V2 receptor cell line (CHO, CRE-luciferase); assay type: cell-based; conditions: CHO cell line transfected with human V2 receptor, [Arg8]-vasopressin at EC50 concentration, read-out: IC50 hV2
T2 construct: expressed in transfected cells; host or cells: CHO K1 (ATCC) expressing firefly luciferase under a CRE-responsive promoter
T2 sequence (P30518 whole entry): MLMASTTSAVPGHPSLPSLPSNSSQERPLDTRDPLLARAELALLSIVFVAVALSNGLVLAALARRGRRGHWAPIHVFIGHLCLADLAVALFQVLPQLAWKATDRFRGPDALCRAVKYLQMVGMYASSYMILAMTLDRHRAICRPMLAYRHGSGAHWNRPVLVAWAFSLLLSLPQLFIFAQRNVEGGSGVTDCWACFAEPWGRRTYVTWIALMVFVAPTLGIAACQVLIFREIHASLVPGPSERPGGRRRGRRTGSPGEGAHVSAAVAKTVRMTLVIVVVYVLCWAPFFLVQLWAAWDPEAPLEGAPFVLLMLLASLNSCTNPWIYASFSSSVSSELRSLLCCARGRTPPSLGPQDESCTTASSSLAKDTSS

Row | Structure (SMILES) | pIC50 [1] | ratio IC50 hV2/hV1a [1] | pIC50 ([2]; 3 hours) | pIC50 [2]
1 | O=C(Nc1cccnc1)c1ccccc1-n1cnc(Cn2nc(-c3ccc(Cl)cc3)n(C[C@H](O)C(F)(F)F)c2=O)n1 [Example 248, 2-[3-({3-(4-Chlorophenyl)-5-oxo-4-[(2S)-3,3,3-trifluoro-2-hydroxypropyl]-4,5-dihydro-1H-1,2,4-triazol-1-yl}methyl)-1H-1,2,4-triazol-1-yl]-N-(pyridin-3-yl)benzamide] | 8.92 | 54.2 | 7.19 | –
2 | O=C(Nc1cccnc1-n1cnc(Cn2nc(-c3ccc(Cl)cc3)n(C[C@H](O)C(F)(F)F)c2=O)n1)C1CC1F (single isomer, unassigned) [Example 61] | 8.36 | 111.5 | 6.31 | –
3 | O=C(Nc1cccnc1-n1cnc(Cn2nc(-c3ccc(Cl)cc3)n(C[C@H](O)C(F)(F)F)c2=O)n1)C1CC(F)(F)C1 [Example 48, N-{2-[3-({3-(4-Chlorophenyl)-5-oxo-4-[(2S)-3,3,3-trifluoro-2-hydroxypropyl]-4,5-dihydro-1H-1,2,4-triazol-1-yl}methyl)-1H-1,2,4-triazol-1-yl]pyridin-3-yl}-3,3-difluorocyclobutanecarboxamide] | 8.15 | 79.0 | 6.25 | –
4 | O=C(CF)Nc1cccnc1-n1cnc(Cn2nc(-c3ccc(Cl)cc3)n(C[C@H](O)C(F)(F)F)c2=O)n1 [Example 39, N-{2-[3-({3-(4-Chlorophenyl)-5-oxo-4-[(2S)-3,3,3-trifluoro-2-hydroxypropyl]-4,5-dihydro-1H-1,2,4-triazol-1-yl}methyl)-1H-1,2,4-triazol-1-yl]pyridin-3-yl}-2-fluoroacetamide] | 7.64 | 15.7 | 6.44 | –
5 | O=C(Nc1cccnc1-n1cnc(Cn2nc(-c3ccc(Cl)cc3)n(C[C@H](O)C(F)(F)F)c2=O)n1)C1CCS(=O)(=O)C1 (single isomer, unassigned) [Example 52] | 7.94 | 173.9 | 5.70 | –
6 | CCn1nccc1NC(=O)c1ccccc1-n1cnc(Cn2nc(-c3ccc(Cl)cc3)n(C[C@H](O)C(F)(F)F)c2=O)n1 [Example 215, 2-[3-({3-(4-Chlorophenyl)-5-oxo-4-[(2S)-3,3,3-trifluoro-2-hydroxypropyl]-4,5-dihydro-1H-1,2,4-triazol-1-yl}methyl)-1H-1,2,4-triazol-1-yl]-N-(1-ethyl-1H-pyrazol-5-yl)benzamide] | 7.93 | 102.1 | 5.92 | –
7 | O=c1n(Cc2ncn(-c3cnccc3NCC(F)(F)F)n2)nc(-c2ccc(Cl)cc2)n1C[C@H](O)C(F)(F)F [Example 10, 5-(4-Chlorophenyl)-2-[(1-{4-[(2,2,2-trifluoroethyl)amino]pyridin-3-yl}-1H-1,2,4-triazol-3-yl)methyl]-4-[(2S)-3,3,3-trifluoro-2-hydroxypropyl]-2,4-dihydro-3H-1,2,4-triazol-3-one] | 6.63 | 1.9 | 6.35 | –
8 | O=c1n(Cc2ncn(-c3cccnc3NCCC(F)(F)F)n2)nc(-c2ccc(Cl)cc2)n1C[C@H](O)C(F)(F)F [Example 69, 5-(4-Chlorophenyl)-4-[(2S)-3,3,3-trifluoro-2-hydroxypropyl]-2-[(1-{2-[(3,3,3-trifluoropropyl)amino]pyridin-3-yl}-1H-1,2,4-triazol-3-yl)methyl]-2,4-dihydro-3H-1,2,4-triazol-3-one] | 6.63 | 1.4 | 6.49 | –
9 | O=C(Nc1ncccc1-n1cnc(Cn2nc(-c3ccc(Cl)cc3)n(C[C@H](O)C(F)(F)F)c2=O)n1)[C@H]1C[C@@H]1F (racemic) [Example 84, N-{3-[3-({3-(4-Chlorophenyl)-5-oxo-4-[(2S)-3,3,3-trifluoro-2-hydroxypropyl]-4,5-dihydro-1H-1,2,4-triazol-1-yl}methyl)-1H-1,2,4-triazol-1-yl]pyridin-2-yl}-2-fluorocyclopropanecarboxamide] | 8.00 | 321.6 | 5.49 | –
10 | C=CCN(C)C(=O)c1ccccc1-n1cnc(Cn2nc(-c3ccc(Cl)cc3)n(C[C@H](O)C(F)(F)F)c2=O)n1 [Example 294, 2-[3-({3-(4-Chlorophenyl)-5-oxo-4-[(2S)-3,3,3-trifluoro-2-hydroxypropyl]-4,5-dihydro-1H-1,2,4-triazol-1-yl}methyl)-1H-1,2,4-triazol-1-yl]-N-methyl-N-(prop-2-en-1-yl)benzamide] | 8.68 | 735.7 | 5.81 | –
11 | Cc1ccn(CC(=O)Nc2ncccc2-n2cnc(Cn3nc(-c4ccc(Cl)cc4)n(C[C@H](O)C(F)(F)F)c3=O)n2)n1 [Example 127] | 6.80 | 6.6 | 5.98 | –
12 | O=C(c1ccccc1-n1cnc(Cn2nc(-c3ccc(Cl)cc3)n(C[C@H](O)C(F)(F)F)c2=O)n1)N1CCOCC1 [Example 172, 5-(4-Chlorophenyl)-2-({1-[2-(morpholin-4-ylcarbonyl)phenyl]-1H-1,2,4-triazol-3-yl}methyl)-4-[(2S)-3,3,3-trifluoro-2-hydroxypropyl]-2,4-dihydro-3H-1,2,4-triazol-3-one] | 8.49 | – | 5.67 | –

The remaining lines, values ahead:

Row | pIC50 [1] | ratio IC50 hV2/hV1a [1] | pIC50 ([2]; 3 hours) | pIC50 [2] | Structure (SMILES)
13 | 7.84 | 63.4 | 6.04 | – | O=C(NCC1CCCCC1)c1ccccc1-n1cnc(Cn2nc(-c3ccc(Cl)cc3)n(C[C@H](O)C(F)(F)F)c2=O)n1 [Example 318, 2-[3-({3-(4-Chlorophenyl)-5-oxo-4-[(2S)-3,3,3-trifluoro-2-hydroxypropyl]-4,5-dihydro-1H-1,2,4-triazol-1-yl}methyl)-1H-1,2,4-triazol-1-yl]-N-(cyclohexylmethyl)benzamide]
14 | 6.92 | 17.1 | 5.69 | – | NC(=O)C1CCCN1C(=O)c1cccc(Cl)c1-n1cnc(Cn2nc(-c3ccc(Cl)cc3)n(C[C@H](O)C(F)(F)F)c2=O)n1 (mixture of isomers) [Example 378, 1-{3-Chloro-2-[3-({3-(4-chlorophenyl)-5-oxo-4-[(2S)-3,3,3-trifluoro-2-hydroxypropyl]-4,5-dihydro-1H-1,2,4-triazol-1-yl}methyl)-1H-1,2,4-triazol-1-yl]benzoyl}-prolinamide]
15 | 8.74 | 244.4 | – | 6.36 | CC1(NC(=O)c2ccncc2-n2cnc(Cn3nc(-c4ccc(Cl)cc4)n(C[C@H](O)C(F)(F)F)c3=O)n2)CC1 [Example 492, 3-[3-({3-(4-Chlorophenyl)-5-oxo-4-[(2S)-3,3,3-trifluoro-2-hydroxypropyl]-4,5-dihydro-1H-1,2,4-triazol-1-yl}methyl)-1H-1,2,4-triazol-1-yl]-N-(1-methylcyclopropyl)pyridine-4-carboxamide]
16 | 8.59 | 38.2 | 7.01 | – | Cc1cccc(NC(=O)c2ccccc2-n2cnc(Cn3nc(-c4ccc(Cl)cc4)n(C[C@H](O)C(F)(F)F)c3=O)n2)c1 [Example 361, 2-[3-({3-(4-Chlorophenyl)-5-oxo-4-[(2S)-3,3,3-trifluoro-2-hydroxypropyl]-4,5-dihydro-1H-1,2,4-triazol-1-yl}methyl)-1H-1,2,4-triazol-1-yl]-N-(3-methylphenyl)benzamide]
17 | 7.70 | 182.5 | – | 5.44 | O=C(c1ncccc1-n1cnc(Cn2nc(-c3ccc(Cl)cc3)n(C[C@H](O)C(F)(F)F)c2=O)n1)N1CCCCC1 [Example 445, 5-(4-Chlorophenyl)-2-({1-[2-(piperidin-1-ylcarbonyl)pyridin-3-yl]-1H-1,2,4-triazol-3-yl}methyl)-4-[(2S)-3,3,3-trifluoro-2-hydroxypropyl]-2,4-dihydro-3H-1,2,4-triazol-3-one]
18 | 7.09 | 32.9 | – | 5.57 | NC(=O)[C@@H]1CC(F)(F)CN1C(=O)c1ncccc1-n1cnc(Cn2nc(-c3ccc(Cl)cc3)n(C[C@H](O)C(F)(F)F)c2=O)n1 [Example 434, 1-({3-[3-({3-(4-Chlorophenyl)-5-oxo-4-[(2S)-3,3,3-trifluoro-2-hydroxypropyl]-4,5-dihydro-1H-1,2,4-triazol-1-yl}methyl)-1H-1,2,4-triazol-1-yl]pyridin-2-yl}carbonyl)-4,4-difluoro-L-prolinamide]
19 | 9.01 | 55.7 | 7.27 | – | O=C(Nc1ccccc1F)c1ccccc1-n1cnc(Cn2nc(-c3ccc(Cl)cc3)n(C[C@H](O)C(F)(F)F)c2=O)n1 [Example 305, 2-[3-({3-(4-Chlorophenyl)-5-oxo-4-[(2S)-3,3,3-trifluoro-2-hydroxypropyl]-4,5-dihydro-1H-1,2,4-triazol-1-yl}methyl)-1H-1,2,4-triazol-1-yl]-N-(2-fluorophenyl)benzamide]
20 | 5.96 | 20.0 | – | 4.66 | NC(=O)[C@@H]1CC(F)(F)CN1C(=O)c1ncccc1-n1cnc(Cn2nc(-c3ccc(Cl)cc3)n(C[C@@H](O)C(F)(F)F)c2=O)n1 [Example 461, 1-({3-[3-({3-(4-Chlorophenyl)-5-oxo-4-[(2R)-3,3,3-trifluoro-2-hydroxypropyl]-4,5-dihydro-1H-1,2,4-triazol-1-yl}methyl)-1H-1,2,4-triazol-1-yl]pyridin-2-yl}carbonyl)-4,4-difluoro-L-prolinamide]
21 | 5.78 | 0.9 | – | 5.84 | O=C1CN(C(=O)c2nc(Cn3nc(-c4ccc(Cl)cc4)n(C[C@H](O)C(F)(F)F)c3=O)nn2-c2cnccc2C(=O)NCCC(F)(F)F)CCN1 [Example 511, 3-{3-({3-(4-Chlorophenyl)-5-oxo-4-[(2S)-3,3,3-trifluoro-2-hydroxypropyl]-4,5-dihydro-1H-1,2,4-triazol-1-yl}methyl)-5-[(3-oxopiperazin-1-yl)carbonyl]-1H-1,2,4-triazol-1-yl}-N-(3,3,3-trifluoropropyl)pyridine-4-carboxamide]
